How the values were obtained:
[1] = tested on: mesenteric arteries of mice with chronic heart failure; assay: Flow-mediated dilatation of isolated mesenteric arteries from mice with chronic heart failure (coronary artery occlusion model); format: cell-based, C57BL6 mice; conditions: CHF mouse arteries, in-vitro incubation 30 min, preconstriction by phenylephrine
From the text: Experimentally, flow-induced release of NO in small peripheral arteries (i.e. arteries that contribute to the increased resistance in heart failure) may be assessed in vitro in isolated perfused, pressurized arteries such as small (<300 μm diameter) mesenteric or hindquarter arteries.
Chronic heart failure is induced in C57BL6 mice (n=12) by coronary ligation according to the model developed in rats by Varin et al,1999, Circulation, 99, 2951-2957.
Mice are anesthetized, ventilated and a thoracotomy (incision of the pleural cavity) is performed. The left main coronary artery is ligated close to its origin. This procedure leads to the development of an infarct involving around 40% of the left ventricle. Post-infarction mortality in this mouse model is around 40-50%.
The development of heart failure is assessed by echocardiography in the closed chest state 7 days and 2 months after coronary ligation. Sham-operated (normal) mice are subjected to the same protocol except that the artery is not be ligated. […]
(§1) Flow-mediated vasodilatation (FMD), i.e. changes in vessel diameter in response to stepwise increases in intra-luminal flow (0-200 μl/min) is evaluated after preconstriction by phenylephrine (incubated 2min at 10^-5 M) after a contraction plateau is reached, at baseline and after incubation with a compound of the invention: […]

[2] = tested on: mesenteric arteries of normal mice; assay: Flow-mediated dilatation of isolated mesenteric arteries from normal (sham-operated) mice; format: cell-based, C57BL6 mice; conditions: 10^-5 M, compared with the roughly abolished response in CHF arteries (FIG. 1)
Protocol: The flow-mediated dilatation response in a normal mouse (open circles) is compared to the flow-mediated dilatation response of mesenteric arteries in either normal mouse subjected to an inhibitor of NO synthesis (left, black circles) or in a mouse wherein chronic heart failure (CHF) has been induced as described in Example 1 (right, black circles).
The development of heart failure is assessed by echocardiography in the closed chest state 7 days and 2 months after coronary ligation. Sham-operated (normal) mice are subjected to the same protocol except that the artery is not be ligated. Six mice are present in each group and mice that survived myocardial infarction are further used in the study.
After two months, the mice is anesthetized and subjected to laparotomy (incision into the abdominal cavity).
A portion of the mesenteric artery (diameter 250-350 μm) is carefully isolated under a dissection microscope, and a 1.5to 2.0-mm length segment is cannulated on both ends, transferred to an arteriograph (Living Systems Instrumentation) and pressurized to 60 mm Hg.
as §1

Row | Structure (SMILES) | flow-mediated dilatation (% dilatation) restoration ([1]; 10^-5 M in Krebs buffer, flow 0-200 μl/min (FIG. 2 left)) | flow-mediated dilatation (% dilatation) restoration ([1]; 10^-6 M in Krebs buffer, flow 0-200 μl/min (FIG. 2 right)) | inhibition of the flow-mediated dilatation response [2]
1 | CCCCCCc1ccc(C#Cc2ccc(CN(Cc3ccc(C(F)(F)F)cc3)C(=O)C(=O)O)cc2)cc1 [Compound 1, {{4-[(4-hexylphenyl)ethynyl]benzyl}[4-(trifluoromethyl)benzyl]amino}(oxo)acetic acid] | restored to the normal level | restored to the normal level | 
2 | N=C(NCCC[C@H](N)C(=O)O)N[N+](=O)[O-] [NG-nitro-L-arginine] |  |  | inhibition of the dilatation response is similar
